Measured values taken from the NIST ThermoML archive (doi:10.1016/j.jct.2016.09.030).
± gives the expanded uncertainty stated by the source.

Test: xn = mol fraction of the nth substance listed
Conditions: 100 kPa, Liquid; for viscosity: Concentric cylinders viscometry; for mass density: Vibrating tube method

CCCCCCCC(=O)OCC [ethyl octanoate] + CC(C)CCO
Conditions	mass density [kg/m3]	viscosity [mPa·s]
288.15 K, x1 = 0.1	822.09 ± 1.6	3.559 ± 0.035
288.15 K, x1 = 0.2001	830.4 ± 1.6	2.806 ± 0.028
288.15 K, x1 = 0.3	837.58 ± 1.6	2.382 ± 0.025
288.15 K, x1 = 0.4	843.9 ± 1.6	2.117 ± 0.023
288.15 K, x1 = 0.5001	849.54 ± 1.6	1.951 ± 0.022
288.15 K, x1 = 0.5999	854.63 ± 1.6	1.856 ± 0.022
288.15 K, x1 = 0.7003	859.29 ± 1.7	1.759 ± 0.021
288.15 K, x1 = 0.7998	863.5 ± 1.7	1.716 ± 0.021
288.15 K, x1 = 0.9001	867.37 ± 1.7	1.687 ± 0.022
288.15 K, x1 = 1	870.88 ± 1.7	1.686 ± 0.022
293.15 K, x1 = 0.1	818.23 ± 1.6	3.06 ± 0.03
293.15 K, x1 = 0.2001	826.44 ± 1.6	2.439 ± 0.025
293.15 K, x1 = 0.3	833.53 ± 1.6	2.11 ± 0.022
293.15 K, x1 = 0.4	839.78 ± 1.6	1.891 ± 0.021
293.15 K, x1 = 0.5001	845.38 ± 1.6	1.752 ± 0.02
293.15 K, x1 = 0.5999	850.42 ± 1.6	1.673 ± 0.02
293.15 K, x1 = 0.7003	855.04 ± 1.7	1.593 ± 0.019
293.15 K, x1 = 0.7998	859.23 ± 1.7	1.557 ± 0.019
293.15 K, x1 = 0.9001	863.07 ± 1.7	1.534 ± 0.02
293.15 K, x1 = 1	866.58 ± 1.7	1.537 ± 0.02
298.15 K, x1 = 0.1	814.36 ± 1.6	2.684 ± 0.026
298.15 K, x1 = 0.2001	822.46 ± 1.6	2.177 ± 0.022
298.15 K, x1 = 0.3	829.47 ± 1.6	1.885 ± 0.02
298.15 K, x1 = 0.4	835.66 ± 1.6	1.702 ± 0.019
298.15 K, x1 = 0.5001	841.2 ± 1.6	1.586 ± 0.018
298.15 K, x1 = 0.5999	846.2 ± 1.6	1.518 ± 0.018
298.15 K, x1 = 0.7003	850.78 ± 1.7	1.451 ± 0.018
298.15 K, x1 = 0.7998	854.94 ± 1.7	1.422 ± 0.018
298.15 K, x1 = 0.9001	858.77 ± 1.7	1.404 ± 0.018
298.15 K, x1 = 1	862.28 ± 1.7	1.41 ± 0.019
303.15 K, x1 = 0.1	810.47 ± 1.6	2.351 ± 0.023
303.15 K, x1 = 0.2001	818.46 ± 1.6	1.936 ± 0.02
303.15 K, x1 = 0.3	825.39 ± 1.6	1.693 ± 0.018
303.15 K, x1 = 0.4	831.52 ± 1.6	1.537 ± 0.017
303.15 K, x1 = 0.5001	837.01 ± 1.6	1.44 ± 0.017
303.15 K, x1 = 0.5999	841.96 ± 1.6	1.385 ± 0.017
303.15 K, x1 = 0.7003	846.52 ± 1.7	1.327 ± 0.016
303.15 K, x1 = 0.7998	850.66 ± 1.7	1.305 ± 0.017
303.15 K, x1 = 0.9001	854.47 ± 1.7	1.292 ± 0.017
303.15 K, x1 = 1	857.98 ± 1.7	1.298 ± 0.017
308.15 K, x1 = 0.1	806.56 ± 1.6	2.077 ± 0.021
308.15 K, x1 = 0.2001	814.45 ± 1.6	1.73 ± 0.018
308.15 K, x1 = 0.3	821.3 ± 1.6	1.527 ± 0.017
308.15 K, x1 = 0.4	827.36 ± 1.6	1.398 ± 0.016
308.15 K, x1 = 0.5001	832.81 ± 1.6	1.315 ± 0.015
308.15 K, x1 = 0.5999	837.72 ± 1.6	1.267 ± 0.015
308.15 K, x1 = 0.7003	842.25 ± 1.7	1.221 ± 0.015
308.15 K, x1 = 0.7998	846.36 ± 1.7	1.202 ± 0.015
308.15 K, x1 = 0.9001	850.16 ± 1.7	1.195 ± 0.016
308.15 K, x1 = 1	853.68 ± 1.7	1.2 ± 0.016
313.15 K, x1 = 0.1	802.62 ± 1.6	1.845 ± 0.019
313.15 K, x1 = 0.2001	810.42 ± 1.6	1.559 ± 0.016
313.15 K, x1 = 0.3	817.19 ± 1.6	1.389 ± 0.015
313.15 K, x1 = 0.4	823.19 ± 1.6	1.281 ± 0.015
313.15 K, x1 = 0.5001	828.58 ± 1.6	1.211 ± 0.014
313.15 K, x1 = 0.5999	833.46 ± 1.6	1.17 ± 0.014
313.15 K, x1 = 0.7003	837.96 ± 1.7	1.132 ± 0.014
313.15 K, x1 = 0.7998	842.05 ± 1.7	1.116 ± 0.014
313.15 K, x1 = 0.9001	845.85 ± 1.7	1.112 ± 0.015
313.15 K, x1 = 1	849.37 ± 1.7	1.118 ± 0.015
318.15 K, x1 = 0.1	798.65 ± 1.6	1.639 ± 0.017
318.15 K, x1 = 0.2001	806.35 ± 1.6	1.401 ± 0.015
318.15 K, x1 = 0.3	813.06 ± 1.6	1.258 ± 0.014
318.15 K, x1 = 0.4	819 ± 1.6	1.167 ± 0.013
318.15 K, x1 = 0.5001	824.35 ± 1.6	1.108 ± 0.013
318.15 K, x1 = 0.5999	829.19 ± 1.6	1.074 ± 0.013
318.15 K, x1 = 0.7003	833.67 ± 1.7	1.042 ± 0.013
318.15 K, x1 = 0.7998	837.74 ± 1.7	1.03 ± 0.013
318.15 K, x1 = 0.9001	841.53 ± 1.7	1.028 ± 0.014
318.15 K, x1 = 1	845.06 ± 1.7	1.035 ± 0.014
323.15 K, x1 = 0.1	794.65 ± 1.6	1.48 ± 0.015
323.15 K, x1 = 0.2001	802.26 ± 1.6	1.281 ± 0.014
323.15 K, x1 = 0.3	808.9 ± 1.6	1.157 ± 0.013
323.15 K, x1 = 0.4	814.79 ± 1.6	1.078 ± 0.013
323.15 K, x1 = 0.5001	820.1 ± 1.6	1.028 ± 0.012
323.15 K, x1 = 0.5999	824.91 ± 1.6	0.9986 ± 0.012
323.15 K, x1 = 0.7003	829.36 ± 1.7	0.9718 ± 0.012
323.15 K, x1 = 0.7998	833.43 ± 1.7	0.9628 ± 0.013
323.15 K, x1 = 0.9001	837.21 ± 1.7	0.9653 ± 0.013
323.15 K, x1 = 1	840.74 ± 1.7	0.9708 ± 0.013
